Values of other authors as cited in paper PMC5408581, “Using X-ray Crystallography, Biophysics, and Functional Assays to Determine the Mechanisms Governing T-cell Receptor Recognition of Cancer Antigens” (Journal of Visualized Experiments : JoVE, 2017).
Read-outs that look alike come from different tables or passages of the source. Values belong to the sequence of their own block, whether it stands above or below them.

Assays:
[1] = molecular target: gp100 TCR (TRAV17 TRBV19); parameters: method as in PMID 26917722; details: SPR, CM5 chip, 25 °C, table reprinted; for Kd: read-out: gp100 TCR TRAV17 TRBV19 Affinity KD
[2] = molecular target: PMEL17 TCR (TRAV21 TRBV7-3); parameters: method as in PMID 26917722; details: SPR, CM5 chip, 25 °C, table reprinted
[3] = peptide refolded with biotin-tagged HLA-A*0201/β2m and coupled via streptavidin (~500-600 RU), ten serial dilutions of soluble TCR, 30 µL/min, equilibrium KD by nonlinear fit

- Kd [1, 3]: 0.0265 ± 0.0023 mM
Sequence: YLEPGPVTA [presented by HLA-A*0201 it is called A2-YLE]

- PMEL17 TCR TRAV21 TRBV7-3 Affinity KD [2, 3]: No binding
- gp100 TCR TRAV17 TRBV19 Affinity KD [1, 3]: No binding
Sequence: YLAPGPVTA [YLE-3A, with HLA-A*0201 called A2-YLE-3A]

- Kd ([2]; read-out: PMEL17 TCR TRAV21 TRBV7-3 Affinity KD, peptide-HLA-A*0201 coupled via streptavidin, soluble TCR injected, bound given in mM): > 1 mM
- Kd ([1]; peptide-HLA-A*0201 coupled via streptavidin, soluble TCR injected, bound given in mM): > 1 mM
Sequence: YLEPAPVTA [YLE-5A, with HLA-A*0201 called A2-YLE-5A]

- Kd [1, 3]: 0.0219 ± 0.0024 mM
Sequence: YLEPGPVTV [YLE-9V, with HLA-A*0201 called A2-YLE-9V]
